Measured values published in patent US20110076298A1, “Soluble stabilized trimeric hiv env proteins and uses thereof” (priority 2006, published 2011).

Columns and labels:
[1] = test system: 2G12, b6, b12, CD4-IgG2, HIVIg; assay: Lectin ELISA antigenicity, untreated vs Tween 20 treated; assay type: binding; conditions: 0.05% Tween 20, lectin ELISA
Description: FIG. 8: Effect of Tween® 20 treatment on KNH1144 SOSIP R6 HMW aggregate antigenicity. Lectin ELISA of untreated and Tween® 20 treated KNH1144 SOSIP R6 HMW aggregate: Untreated or Tween® 20-treated HMW aggregate were bound to GNA lectin coated ELISA plates and probed with 2G12, b6, b12, CD4-IgG2, and HIVIg. The panels represent their respective binding curves. Antibody affinity to the untreated HMW aggregate is represented by the curve having diamond lines. Affinity to the Tween® 20 treated HMW aggregate is represented by curve having square lines. The Y-axis represents the colorimetric signal at OD492 and the X-axis represents antibody concentration in [ug/ml]. Lectin ELISA of untreated and Tween® 20-treated KNH1144 SOSIP R6 gp140 trimer: Untreated or Tween® 20 treated trimer (containing 10-15% HMW aggregate) were bound to GNA lectin coated ELISA plates and probed with 2G12, b6, b12, and CD4-IgG2. The panels represent their respective binding curves. Antibody affinity to the untreated trimer is represented by the curve having diamond lines. Affinity to the Tween® 20 treated trimer is represented by the curve having square lines. The Y-axis represents the colorimetric signal at OD492 and the X-axis represents antibody concentration in [ug/ml].
ELISA plates were coated overnight at 4° C. with lentil lectin powder from Lens culinaris (L9267, Sigma) at 10 ug/ml concentration. […]

[2] = Tween 20 aggregate conversion/collapse experiments, BN-PAGE; assay type: physicochemical; conditions: 0° C., room temperature, 37° C.
Procedure: FIGS. 6A-6D: Tween® 20 conversion experiments. (A) Dose response: Purified KNH1144 SOSIP R6 gp140 trimer was incubated with 0 (no detergent control), or 0.1, 0.05, 0.01, 0.001, or 0.0001% Tween® 20 and analyzed by BN-PAGE and Coomassie G-250 stain. Arrows point to HMW aggregate and trimer species. M stands for the 669 k thyroglobulin and 440 k ferritin molecular weight protein standards. (B) Time course: Purified KNH1144 SOSIP R6 gp140 trimer was incubated with Tween® 20 for 5 min (left panel) or 10 min (right panel). Trimer was either untreated (−lane) or Tween® 20 treated (+lane). Arrows indicate trimer and HMW aggregate bands. […]
Tween® 20 Dose effect: 1 ug of purified KNH1144 SOSIP R6 trimer was incubated with varying concentrations of Tween® 20 (polyoxyethylene sorbitan monolaurate) ranging from 0 to 0.0001% (v/v) and incubated for 1 hour at room temperature. Following incubation, samples were analyzed by BN-PAGE as described above. […]
Temperature dependance on Tween® 20 effect: To determine if temperature affected the ability of Tween® 20 to recover trimers from aggregates (i.e., collapse aggregate into trimer), 1 ug of purified KNH1144 SOSIP R6 trimer was incubated with Tween® 20 to a final concentration of 0.05% (v/v) at 0° C. […] Following the incubation, samples were analyzed by BN-PAGE and Coomassie staining. […]

## KNH1144 SOSIP R6 HMW aggregate: high molecular weight aggregate species of KNH1144 SOSIP R6 gp140, slower migrating on BN-PAGE
[1]
  antibody binding, Tween 20 treated vs untreated: increased binding
[2]
  temperature dependence of the Tween 20 effect: temperature independent
